Test [1] deals with MCF7/vBOS cells (DSM ACC3321). Briefly: Formation of discontinuous basolateral adherens junctions upon anti-estrogen exposure (E-Cadherin immunofluorescence). In kind it is cell-based, human. Particulars: for formation of discontinuous adherens junctions (E-Cadherin staining): concentration and incubation time per compound as in FIGS. 1-3. From the text:
The time usually required for formation of discontinuous basolateral adherens junctions will depend on the estrogen receptor binding affinity and concentration of the anti-estrogen used on the one hand and the cell used on the other hand, but a person skilled in the art will be readily capable of determining the appropriate time spans and concentration for a given anti-estrogen and cell. For example, if the cell is a cell as deposited under accession number DSM ACC3321, suitable concentration ranges and culture times for manifestation of the discontinuous basolateral adherens junctions phenotype in presence of fulvestrant, tamoxifen, ZK 164015, MPP dihydrochloride, and (Z)-4-hydroxytamoxifen, without being limited thereto, are:
MCF7/vBOS cells were grown on glass coverslips in multi-well tissue culture plates (TPP) for 24 h and then treated for at least 48 h with 0.1% EtOH (solvent control) and different concentrations (10^−11 M, 10^−10 M, 10^−9 M, 10^−8 M, 10^−7 M) of the ERα antagonist fulvestrant (Sigma-Aldrich, CAS-No. 129453-61-8). During experiments, medium was exchanged on a daily basis. All experiments were performed at 37° C. with 5% CO2 in reduced-serum medium (phenol red-free DMEM (Gibco), 5% FBS (Biochrom, S 0615, LOT1353 W), 1% glutamine, 100 μg/ml streptomycin/100 U/ml penicillin (Biochrom)).
After treatment with fulvestrant the adherens junction morphology of the cells was analysed by means of immunofluorescence microscopy. Briefly, cells were fixed with 3.7% formaldehyde in PBS for 15 min, permeabilized with 0.2% Triton X-100 in PBS for 30 min, and blocked with 5% FBS in PBS for 60 min (all steps at room temperature). Incubation with primary and secondary antibodies in PBS containing 1.5% BSA was carried out over night at 4° C. and for 1 h at room temperature, respectively. The following antibodies/dyes were used: anti-E-Cadherin (H-108, Santa Cruz); DAPI (Roche); secondary antibody conjugated to Cy3 (alternatives are, e.g.: Cy2, Alexa Fluor 488/555/647; all Invitrogen). The samples were then mounted in Dako fluorescence mounting medium (Dako) or VectaShield (Vector Labs). All images were acquired with an Axio Observer.Z1 widefield microscope equipped with an Apotome.2 device for optical sectioning using structured illumination (Zeiss). After 48 hours the fraction of cells displaying discontinuous adherens junctions was determined by CellProfiler/CellProfer-analyst software (see example 7).
In view of the results obtained with MCF7/vBOS cells upon exposure to fulvestrant the inventors speculated that a similar phenotype might be obtainable with other ERα antagonist as well. To test this hypothesis, the inventors used the ERα antagonists tamoxifen (Sigma-Aldrich, CAS-No. 10540-29-1), MPP dihydrochloride (Sigma-Aldrich, CAS-No. 911295-24-4), ZK164015 (Tocris, CAS-No. 177583-70-9), and (Z)-4-hydroxytamoxifen (Tocris, CAS-No. 68047-06-3). The same protocols as in example 2 were used with the following deviations: • Tamoxifen: Cells were grown for 24 h and then treated for 144 h with 10^−8 and 10^−6 M tamoxifen. • MPP dihydrochloride: Cells were grown for 24 h and then treated for 144 h with 10^−8 and 10^−6 M MPP dihydrochloride. • ZK164015: Cells were grown for 24 h and then treated for 48 h with 10^−9 and 10^−7 M ZK164015. • (Z)-4-hydroxytamoxifen: Cells were grown for 24 h and then treated for 72 h with 10^−9 and 10^−8 M (Z)-4-hydroxytamoxifen.
Subsequently, quantitative image analysis was performed using a pipeline that builds on the CellProfiler software (Carpenter et al., Genome Biol., 2006; 7(10):R100.) for segmentation and extraction of cellular parameters, and on the CellProfiler Analyst software (Jones et al., BMC Bioinformatics, 2008 Nov. 15; 9:482) for parameter-based classification of cells. In the segmentation process, primary objects (nuclei) were identified from DAPI staining by global thresholding using Otsu's method. […]

For test [2], the system named is MCF7/vBOS cells (DSM ACC3321). The description is as above. In kind it is cell-based, human.
Setting [3] is: cell as deposited under DSM ACC3321.

SMILES strings stand for the structures. Entries after “also recorded” stand apart in the source; their conditions may differ.

Turning to `C[C@]12CC[C@@H]3c4ccc(O)cc4C[C@@H](CCCCCCCCC[S+]([O-])CCCC(F)(F)C(F)(F)F)[C@H]3[C@@H]1CC[C@@H]2O` (stereo partly shown) [Fulvestrant], in test [1], the “activity in this assay relative to tamoxifen, ZK164015, MPP or (Z)-4-hydroxytamoxifen” value is on record as “more active”; the “time after treatment within which discontinuous adherence junctions form” value was “two”; the “time within which discontinuous basolateral adherens junctions have stably formed” value was 28 to 48 h; the “formation of discontinuous adherens junctions (E-Cadherin staining)” value is “triggers the formation of discontinuous adherence junctions”. Also, the “stability of discontinuous basolateral adherens junctions without adding additional anti-estrogens” value in test [1] (after stable formation) is at least 72 h. In test [1] (setting [3]), the “Concentration (M) suitable for manifestation of the discontinuous basolateral adherens junctions phenotype” value was 10^−9-10^−7 M and the “Culture time (h) typically required for formation of discontinuous basolateral adherens junctions” value was in the range of 24 to 96 h. Further, the “formation of discontinuous adherens junctions (E-Cadherin staining)” value in test [1] (listed as fulvestrant) was “formation of discontinuous adherens junctions; also recorded: morphology changes”. The “fraction of cells with continuous / discontinuous adherens junctions (CellProfiler quantification)” value in test [1] (different concentrations, 48 hours) is reported as “fraction of cells with continuous adherens junctions decreased while the fraction of cells with discontinuous adherens junctions increased”. Also, the “minimal concentration for appearance of discontinuous adherens junctions” value in test [1] (treatment for 48 hours, 10^−11 to 10^−7 M tested) is recorded as 10^−9 M. The “change in adherens junctions morphology on staining β-Catenin, α-Catenin, p120-Catenin or cortical actin cytoskeleton” value in test [2] (10^−8 M, at least 48 h) was “also observable”. In test [2] (exposure for only 2 hours, read after 48 hours in media w/o fulvestrant), the “manifestation of phenotype after short exposure” value is “lead to manifestation of the discontinuous basolateral adherens junctions phenotype”. Further, the “stability of discontinuous adherens junctions independent of the presence of fulvestrant” value in test [2] (fulvestrant 24 hours, then 24 or 48 hours in fulvestrant-free medium) was “at least 48”.

The values are drawn from patent US20210055311A1, “SCREENING METHOD FOR ESTROGENIC AND ANTI-ESTROGENIC ACTIVITY” (BUNDESINSTITUT FÜR RISIKOBEWERTUNG, priority 2018, published 2021).
